Assay [1] concerns the target T1, Neuronal acetylcholine receptor; alpha4/beta2 (Homo sapiens, UniProt P17787+P43681). The assay is described as follows: Displacement of [3H]nicotine from human alpha4beta2 nAChR expressed in human SH-EP1 cell membranes after 2 hrs by liquid scintillation counting analysis. For orientation: Displacement assays read how much labelled ligand stays bound in the presence of the test substance.

Assay [2] has as its target T1, Neuronal acetylcholine receptor; alpha4/beta2. The assay is described as follows: Agonist activity at human alpha4beta2 nAChR expressed in human SH-EP1 cells assessed as induction of intracellular Ca2+ influx by FLIPR assay relative to nicotine. Type of assay: cell-based.
For assay [3] the target is unchanged. The experiment in a line: Agonist activity at human alpha4beta2 nAChR expressed in human SH-EP1 cells assessed as induction of electrophysiological response at 0.1 uM by patch clamp method relative to acetylcholine. The format is cell-based. On the technique in general: In patch-clamp work, channel activity is measured electrically.
For assay [4] the target is unchanged. The assay is described as follows: Agonist activity at human alpha4beta2 nAChR expressed in human SH-EP1 cells assessed as induction of electrophysiological response at 1 uM by patch clamp method relative to acetylcholine. Type of assay: cell-based.
The target is the same in assay [5]. The experiment in a line: Agonist activity at human alpha4beta2 nAChR expressed in human SH-EP1 cells assessed as induction of electrophysiological response at 10 uM by patch clamp method relative to acetylcholine. The format is cell-based.
The target is the same in assay [6]. The assay is described as follows: Agonist activity at human alpha4beta2 nAChR expressed in human SH-EP1 cells assessed as induction of intracellular Ca2+ influx by FLIPR assay. Type of assay: cell-based.

T1 sequence (P17787 whole entry): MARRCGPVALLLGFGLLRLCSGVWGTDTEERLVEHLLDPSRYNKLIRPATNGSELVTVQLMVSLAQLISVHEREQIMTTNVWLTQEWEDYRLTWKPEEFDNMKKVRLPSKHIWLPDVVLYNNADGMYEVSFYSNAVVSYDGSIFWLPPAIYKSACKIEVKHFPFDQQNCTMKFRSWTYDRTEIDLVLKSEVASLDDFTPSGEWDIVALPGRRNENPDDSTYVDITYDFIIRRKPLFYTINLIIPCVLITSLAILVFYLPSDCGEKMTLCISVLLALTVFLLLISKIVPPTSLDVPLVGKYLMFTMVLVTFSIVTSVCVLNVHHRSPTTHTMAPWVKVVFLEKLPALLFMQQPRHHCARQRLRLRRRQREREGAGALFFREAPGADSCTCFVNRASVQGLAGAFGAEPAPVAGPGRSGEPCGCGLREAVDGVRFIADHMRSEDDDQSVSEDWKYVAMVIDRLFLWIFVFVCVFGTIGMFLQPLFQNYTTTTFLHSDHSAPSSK
T1 sequence (P43681 whole entry): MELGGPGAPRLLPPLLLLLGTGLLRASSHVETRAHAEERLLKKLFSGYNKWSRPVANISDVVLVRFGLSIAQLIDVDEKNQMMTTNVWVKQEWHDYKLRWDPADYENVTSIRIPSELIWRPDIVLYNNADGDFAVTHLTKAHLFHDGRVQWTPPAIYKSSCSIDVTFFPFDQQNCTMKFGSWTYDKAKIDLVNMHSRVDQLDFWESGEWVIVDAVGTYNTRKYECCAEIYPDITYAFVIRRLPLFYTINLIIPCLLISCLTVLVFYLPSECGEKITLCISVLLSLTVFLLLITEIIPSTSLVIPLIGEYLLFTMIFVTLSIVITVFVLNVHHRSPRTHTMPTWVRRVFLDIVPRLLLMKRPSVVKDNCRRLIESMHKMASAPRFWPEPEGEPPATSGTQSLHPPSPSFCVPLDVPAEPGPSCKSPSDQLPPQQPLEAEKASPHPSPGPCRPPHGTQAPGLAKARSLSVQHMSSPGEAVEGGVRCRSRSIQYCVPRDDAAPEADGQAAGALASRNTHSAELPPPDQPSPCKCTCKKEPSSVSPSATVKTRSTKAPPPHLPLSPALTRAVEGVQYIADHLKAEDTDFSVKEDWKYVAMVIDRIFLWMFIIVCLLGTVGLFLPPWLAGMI

The compound `c1ccc(C(c2ccccc2)[N+]23CCN(CC2)CC3)cc1` had a Ki in assay [1] of more than 10000 nM. In addition, in assay [2], the Emax is less than 5%. The Activity was 1% in assay [3], 3% in assay [4] and 1% in assay [5].
In assay [1], `C(=C1/CN2CCC1CC2)/c1ccccc1` had a Ki of 1600 nM. Besides, the Emax in assay [2] amounted to 11%. In addition, in assay [6], the EC50 was more than 10000 nM. Moreover, the results for the Activity in assay [3], in assay [4] and in assay [5] were 2%, 3% and 2%, respectively.
As to `N#C/C(=C1\CN2CCC1CC2)c1ccccc1`, the Ki in assay [1] was determined as 1100 nM. In addition, the Emax in assay [2] is less than 5%. In addition, the Activity in assay [3] was determined as 3%; in assay [4], 2%; in assay [5], 2%.
Compound `c1ccc(C(=C2CN3CCC2CC3)c2ccccc2)cc1` gave a Ki in assay [1] of 90 nM. In addition, the Emax in assay [2] came out at 6%. Moreover, the Activity amounted to 0.6% in assay [3], 2% in assay [4] and 2% in assay [5].
`C(CN1CCCCC1)=C(c1ccccc1)c1ccccc1` gave a Ki in assay [1] of 160 nM. Besides, in assay [2], the Emax was 9%. The Activity stood at 0.8% in assay [3], 2% in assay [4] and 1% in assay [5].
The compound `C(=C1/CN2CCC1CC2)/c1cccnc1` came in with a Ki in assay [1] of 6 nM. For the same compound, the Emax in assay [2] was determined as 18%. In addition, the EC50 in assay [6] is more than 10000 nM. Moreover, the figures for the Activity in assay [3], in assay [4] and in assay [5] were 4%, 11% and 24%, respectively.
Regarding `c1ccc(C[N+]23CCC(CC2)C(=C(c2ccccc2)c2ccccc2)C3)cc1`, the Ki in assay [1] came to 7000 nM. Moreover, in assay [2], the Emax was less than 5%. In addition, the Activity in assay [3] worked out at 2%; in assay [4] it was 2%; in assay [5], 1%.

For orientation: Ki means a dissociation constant, usually derived from enzyme kinetics or from competition with a known ligand. As usually defined, the Emax is the size of the effect at its maximum, as opposed to the concentration needed. In general, EC50 refers to the midpoint of the concentration-response curve.

The values above are taken from ChEMBL document CHEMBL2434918, “QM-polarized ligand docking accurately predicts the trend in binding affinity of a series of arylmethylene quinuclidine-like derivatives at the α4β2 and α3β4 nicotinic acetylcholine receptors (nAChRs)” (Bioorg Med Chem Lett, 2013).
